Measured values reported in patent US8192962B2, “Processes for detecting toxic substances” (Daikin Industries, Ltd., priority 2001, dated 2012).

System: Metabolism protein genes
Experiment: DNA chip mRNA expression in yeast, metabolism protein genes (Table 7)
Assay type: cell-based, Saccharomyces cerevisiae S288C
Description: Yeast (Saccharomyces cerevisiae S288C (α SUC2mal mel gap2 CUP1)) were incubated at 25° C. on YPD medium (yeast extract 1%, polypepton 2%, glucose 2%). One of toxic chemical substances was added to the cells at logarithmic growth phase, and the cells were further incubated for two hours. Cells were cultured without any chemical substance in the same condition, and were used as control. Concentrations of the chemical substances were defined to inhibit the growth of the yeast but not lead to death.
After completion of the incubation, the culture was centrifuged to collect the cells. To the cells, sodium acetate buffer (50 mM sodium acetate, 10 mM EDTA, 1% SDS) was added, and the mixture was shaken at 65° C. for five minutes, followed by returning to room temperature, and obtaining the supernatant, of which the procedures were repeated two times. To the supernatant, ½ amount of a solution of phenol/chloroform was added, and the mixture was centrifuged to give a supernatant, which was added with an equal amount of chloroform, and the mixture was centrifuged to give a supernatant. To the supernatant, an equal amount of isopropanol containing 0.3 M sodium acetate was added, and the mixture was allowed to stand at room temperature for 30 minutes, after which the mixture was centrifuged to give a sediment of the whole RNAs. Seventy % ethanol was added to the sediment, and the mixture was again centrifuged to give a sediment, which was then dried and dissolved in water. mRNA was isolated from the whole RNAs as followings. In view of the fact that a poly A chain is attached to the 3′ terminus of mRNA, a polynucleotide having a poly T structure which was immobilized on the surface of latex beads was used to trap the mRNA, and then the mRNA was washed and eluted with spine column (Oligotex-dT30<Super>mRNA Purification Kit, Takara). Reverse transcription of the mRNA was conducted with a reverse transcriptase (Super Script II Reverse Transcriptase; catalogue No. 18064-014, GibcoBRL) using fluorescence-labeled nucleotides to give cDNAs that were introduced with Cy3-dUTP or Cy5-dUTP during the reverse transcription.
The labeled cDNAs were dissolved in TE buffer (10mM Tris-HCl/1 mM EDTA, pH8.0), and the solution was dropped on the DNA chip containing the whole genes of yeast (DNA Chip Research Inc. Japan) so that the cDNAs were hybridized on the DNA chip at 65° C. for over 12 hours. The fluoresces intensity of the DNA chip was read with a scanner, and the ratio relative to the fluorescence intensity resulting from the absence of chemical substance was estimated as the following, which is shown in Tables 1 to 9: […]

## [Cl][Hg][Cl] [(3), HgCl2]
Yeast gene YNL025C
  level of expressed mRNA in the presence/in the absence of chemical substance: 1.4
Yeast gene YNL045W
  The level of expressed mRNA in the presence of chemical substance/The level of expressed mRNA in the absence of chemical substance: 2.0
Yeast gene YNL104C
  The level of expressed mRNA in the presence of chemical substance/The level of expressed mRNA in the absence of chemical substance: 3.0
Yeast gene YNL106C
  The level of expressed mRNA in the presence of chemical substance/The level of expressed mRNA in the absence of chemical substance: 0.8
Yeast gene YNL169C
  The level of expressed mRNA in the presence of chemical substance/The level of expressed mRNA in the absence of chemical substance: 1.4
Yeast gene YNL192W
  level of expressed mRNA in the presence/in the absence of chemical substance: 1.5
Yeast gene YNL231C
  The level of expressed mRNA in the presence of chemical substance/The level of expressed mRNA in the absence of chemical substance: 0.8
Yeast gene YNL322C
  The level of expressed mRNA in the presence of chemical substance/The level of expressed mRNA in the absence of chemical substance: 1.9
Yeast gene YNL331C
  The level of expressed mRNA in the presence of chemical substance/The level of expressed mRNA in the absence of chemical substance: 1.3
Yeast gene YNL332W
  The level of expressed mRNA in the presence of chemical substance/The level of expressed mRNA in the absence of chemical substance: 1.1
Yeast gene YNR019W
  The level of expressed mRNA in the presence of chemical substance/The level of expressed mRNA in the absence of chemical substance: 1.6
Yeast gene YNR033W
  The level of expressed mRNA in the presence of chemical substance/The level of expressed mRNA in the absence of chemical substance: 0.8
Yeast gene YNR059W
  The level of expressed mRNA in the presence of chemical substance/The level of expressed mRNA in the absence of chemical substance: 0.2
Yeast gene YOL058W
  The level of expressed mRNA in the presence of chemical substance/The level of expressed mRNA in the absence of chemical substance: 1.7
Yeast gene YOL086C
  level of expressed mRNA in the presence/in the absence of chemical substance: 2.2
Yeast gene YOL108C
  level of expressed mRNA in the presence/in the absence of chemical substance: 0.4
Yeast gene YOL116W
  level of expressed mRNA in the presence/in the absence of chemical substance: 0.9
Yeast gene YOL126C
  The level of expressed mRNA in the presence of chemical substance/The level of expressed mRNA in the absence of chemical substance: 1.0
Yeast gene YOL153C
  The level of expressed mRNA in the presence of chemical substance/The level of expressed mRNA in the absence of chemical substance: 2.1
Yeast gene YOL156W
  level of expressed mRNA in the presence/in the absence of chemical substance: 2.5
Yeast gene YOL165C
  The level of expressed mRNA in the presence of chemical substance/The level of expressed mRNA in the absence of chemical substance: 1.8
Yeast gene YOR002W
  level of expressed mRNA in the presence/in the absence of chemical substance: 1.9
Yeast gene YOR085W
  level of expressed mRNA in the presence/in the absence of chemical substance: 1.9
Yeast gene YOR099W
  The level of expressed mRNA in the presence of chemical substance/The level of expressed mRNA in the absence of chemical substance: 2.1
Yeast gene YOR103C
  level of expressed mRNA in the presence/in the absence of chemical substance: 1.3
Yeast gene YOR108W
  level of expressed mRNA in the presence/in the absence of chemical substance: 2.3
Yeast gene YOR128C
  level of expressed mRNA in the presence/in the absence of chemical substance: 2.1
Yeast gene YOR130C
  The level of expressed mRNA in the presence of chemical substance/The level of expressed mRNA in the absence of chemical substance: 1.4
Yeast gene YOR142W
  level of expressed mRNA in the presence/in the absence of chemical substance: 3.4
Yeast gene YOR176W
  level of expressed mRNA in the presence/in the absence of chemical substance: 2.7
Yeast gene YOR178C
  level of expressed mRNA in the presence/in the absence of chemical substance: 4.8
Yeast gene YOR251C
  level of expressed mRNA in the presence/in the absence of chemical substance: 1.3
Yeast gene YOR336W
  The level of expressed mRNA in the presence of chemical substance/The level of expressed mRNA in the absence of chemical substance: 0.7
Yeast gene YOR347C
  The level of expressed mRNA in the presence of chemical substance/The level of expressed mRNA in the absence of chemical substance: 2.1
Yeast gene YOR348C
  level of expressed mRNA in the presence/in the absence of chemical substance: 1.2
Yeast gene YPL017C
  The level of expressed mRNA in the presence of chemical substance/The level of expressed mRNA in the absence of chemical substance: 0.8
Yeast gene YPL028W
  level of expressed mRNA in the presence/in the absence of chemical substance: 2.6
Yeast gene YPL057C
  level of expressed mRNA in the presence/in the absence of chemical substance: 3.2
Yeast gene YPL135W
  level of expressed mRNA in the presence/in the absence of chemical substance: 2.5
Yeast gene YPL148C
  level of expressed mRNA in the presence/in the absence of chemical substance: 0.9
Yeast gene YPR026W
  The level of expressed mRNA in the presence of chemical substance/The level of expressed mRNA in the absence of chemical substance: 5.0
Yeast gene YPR113W
  level of expressed mRNA in the presence/in the absence of chemical substance: 3.7
Yeast gene YPR165W
  level of expressed mRNA in the presence/in the absence of chemical substance: 1.6
Yeast gene YPR167C
  The level of expressed mRNA in the presence of chemical substance/The level of expressed mRNA in the absence of chemical substance: 1.9
Yeast gene YPR183W
  level of expressed mRNA in the presence/in the absence of chemical substance: 3.5
